Measurements: ChEMBL document CHEMBL5107999, “Synthesis and biological evaluation of 4-hydroxy-methylpiperidinyl-N-benzyl-acylarylhydrazone hybrids designed as novel multifunctional drug candidates for Alzheimer's disease” (Bioorg Med Chem, 2022)
The source made the active and inactive calls. The calls are words filed in the database; no cut-off is given here.

Experiments:
[1] = biological target: T1, Acetylcholinesterase (Electrophorus electricus, UniProt O42275); test: Inhibition of Electrophorus electricus AchE using acetylthiocholine iodide as substrate preincubated for 10 mins followed by substrate addition by spectrophotometric based Ellman's method
[2] = Selectivity ratio, ratio of IC50 for equine serum BuChE to IC50 for Electrophorus electricus AchE
[3] = test system: HT-29; test: Cytotoxicity against human HT-29 cells assessed as reduction in cell viability upto 30 uM incubated for 24 hrs by calcein/propidium iodide assay; format: toxicity, cell-based; settings: ht-29, 24 h
[4] = biological target: Cholinesterase (Equus caballus, UniProt P81908); test: Inhibition of equine serum BuChE using butyrylthiocholine as substrate preincubated for 10 mins followed by substrate addition by spectrophotometric based Ellman's method
[5] = biological target: Acetylcholinesterase (Electrophorus electricus) (UniProt O42275); test: Inhibition of Electrophorus electricus AchE using acetylthiocholine iodide as substrate at 30 uM preincubated for 10 mins followed by substrate addition by spectrophotometric based Ellman's method
[6] = biological target: T1, Acetylcholinesterase; test: Inhibition of Electrophorus electricus AchE assessed as inhibition constant
[7] = test system: SH-SY5Y; test: Antioxidant activity against t-BOOH induced neurotoxicity in human SH-SY5Y cells at 10 uM; format: functional
[8] = test system: SH-SY5Y; test: Neuroprotective activity against t-BOOH induced neurotoxicity in human SH-SY5Y cells assessed as inhibition of ROS formation at 10 uM incubated for 30 mins by H2DCF-DA fluorescence assay; format: functional, cell-based
[9] = test system: SH-SY5Y; test: Cytotoxicity against human SH-SY5Y cells assessed as reduction in cell viability upto 40 uM incubated for 24 hrs by MTT assay; format: toxicity, cell-based
[10] = biological target: Amyloid-beta precursor protein (Homo sapiens) (UniProt P05067); test: Inhibition of amyloid beta (1 to 42) (unknown origin) self aggregation at 75 uM by Thioflavin T based fluorescence assay
[11] = test system: SH-SY5Y; test: Antioxidant activity against t-BOOH induced neurotoxicity in human SH-SY5Y cells; format: functional, cell-based
[12] = test system: SH-SY5Y; test: Neuroprotective activity against t-BOOH induced neurotoxicity in human SH-SY5Y cells assessed as increase in cell viability at 2.5 to 10 uM incubated for 4 hrs by MTT assay; format: functional, cell-based; settings: dose 2.5-10 µM
[13] = test system: SH-SY5Y; test: Cytotoxicity against human SH-SY5Y cells assessed as reduction in cell viability at 20 to 80 uM incubated for 24 hrs by MTT assay; format: toxicity, cell-based; settings: dose 20-80 µM
[14] = test system: SH-SY5Y; test: Neuroprotective activity against t-BOOH induced neurotoxicity in human SH-SY5Y cells assessed as inhibition of ROS formation at 2.5 to 10 uM incubated for 30 mins by H2DCF-DA fluorescence assay; format: functional, cell-based; settings: dose 2.5-10 µM
[15] = test system: SH-SY5Y; test: Neuroprotective activity against amyloid beta (1 to 42) induced neurotoxicity in human SH-SY5Y cells assessed as increase in cell viability at 5 to 10 uM incubated for 4 hrs by MTT assay; format: functional, cell-based; settings: dose 5-10 µM

T1 sequence (O42275 whole entry): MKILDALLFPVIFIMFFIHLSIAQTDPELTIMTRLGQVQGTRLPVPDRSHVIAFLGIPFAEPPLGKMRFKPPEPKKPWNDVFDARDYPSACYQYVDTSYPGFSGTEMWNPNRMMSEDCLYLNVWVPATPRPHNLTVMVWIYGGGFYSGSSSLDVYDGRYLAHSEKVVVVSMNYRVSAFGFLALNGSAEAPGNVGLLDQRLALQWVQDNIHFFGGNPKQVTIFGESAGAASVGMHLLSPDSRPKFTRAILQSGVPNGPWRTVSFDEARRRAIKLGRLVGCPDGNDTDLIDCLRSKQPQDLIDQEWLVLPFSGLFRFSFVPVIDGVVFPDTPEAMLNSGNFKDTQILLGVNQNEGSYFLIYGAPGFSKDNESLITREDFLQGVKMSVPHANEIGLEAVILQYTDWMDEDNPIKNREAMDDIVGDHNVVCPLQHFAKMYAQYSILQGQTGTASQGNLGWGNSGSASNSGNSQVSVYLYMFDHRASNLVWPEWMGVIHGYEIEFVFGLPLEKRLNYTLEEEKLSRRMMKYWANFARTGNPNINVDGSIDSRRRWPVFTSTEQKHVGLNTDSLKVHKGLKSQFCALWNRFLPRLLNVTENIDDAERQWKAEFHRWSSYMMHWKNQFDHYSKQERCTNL
Cholinesterase, sequence (P81908 whole entry): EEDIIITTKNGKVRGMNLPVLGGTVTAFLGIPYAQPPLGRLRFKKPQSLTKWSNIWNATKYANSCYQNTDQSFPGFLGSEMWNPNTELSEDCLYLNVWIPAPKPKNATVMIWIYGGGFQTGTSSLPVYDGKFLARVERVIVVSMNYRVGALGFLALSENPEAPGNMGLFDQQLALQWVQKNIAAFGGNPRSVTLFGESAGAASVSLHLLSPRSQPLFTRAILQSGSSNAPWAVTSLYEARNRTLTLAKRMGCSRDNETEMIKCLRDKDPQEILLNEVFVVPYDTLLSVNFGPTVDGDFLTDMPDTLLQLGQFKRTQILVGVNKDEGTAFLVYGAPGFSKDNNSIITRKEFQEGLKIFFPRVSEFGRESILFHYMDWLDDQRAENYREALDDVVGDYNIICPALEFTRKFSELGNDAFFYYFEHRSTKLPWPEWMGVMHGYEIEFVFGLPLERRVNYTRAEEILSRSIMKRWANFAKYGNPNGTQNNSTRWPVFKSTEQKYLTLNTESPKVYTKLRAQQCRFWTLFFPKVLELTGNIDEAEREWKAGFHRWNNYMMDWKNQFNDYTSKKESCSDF
Amyloid-beta precursor protein (Homo sapiens), sequence (P05067 whole entry): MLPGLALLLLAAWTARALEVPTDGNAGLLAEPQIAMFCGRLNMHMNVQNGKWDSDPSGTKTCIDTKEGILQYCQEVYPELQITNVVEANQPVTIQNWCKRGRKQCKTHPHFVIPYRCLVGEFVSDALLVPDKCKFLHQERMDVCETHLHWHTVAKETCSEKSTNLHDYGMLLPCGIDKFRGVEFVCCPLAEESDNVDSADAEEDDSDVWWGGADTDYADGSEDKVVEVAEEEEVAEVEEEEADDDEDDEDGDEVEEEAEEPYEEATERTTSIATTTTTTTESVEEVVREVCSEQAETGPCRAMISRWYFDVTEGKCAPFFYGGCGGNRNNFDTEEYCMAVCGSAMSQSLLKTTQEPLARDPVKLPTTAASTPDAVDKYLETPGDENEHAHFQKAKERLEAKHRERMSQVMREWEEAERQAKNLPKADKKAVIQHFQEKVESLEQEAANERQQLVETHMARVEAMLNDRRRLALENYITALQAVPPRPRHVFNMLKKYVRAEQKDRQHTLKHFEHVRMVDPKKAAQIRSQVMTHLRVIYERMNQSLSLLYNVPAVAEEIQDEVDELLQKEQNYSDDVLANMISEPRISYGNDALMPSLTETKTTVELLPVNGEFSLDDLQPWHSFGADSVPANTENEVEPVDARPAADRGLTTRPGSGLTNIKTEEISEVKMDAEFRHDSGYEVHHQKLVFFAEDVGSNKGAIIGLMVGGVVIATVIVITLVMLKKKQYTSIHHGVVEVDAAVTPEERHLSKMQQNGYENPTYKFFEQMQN
Acetylcholinesterase (Electrophorus electricus), sequence (O42275 24-633 limits assumed): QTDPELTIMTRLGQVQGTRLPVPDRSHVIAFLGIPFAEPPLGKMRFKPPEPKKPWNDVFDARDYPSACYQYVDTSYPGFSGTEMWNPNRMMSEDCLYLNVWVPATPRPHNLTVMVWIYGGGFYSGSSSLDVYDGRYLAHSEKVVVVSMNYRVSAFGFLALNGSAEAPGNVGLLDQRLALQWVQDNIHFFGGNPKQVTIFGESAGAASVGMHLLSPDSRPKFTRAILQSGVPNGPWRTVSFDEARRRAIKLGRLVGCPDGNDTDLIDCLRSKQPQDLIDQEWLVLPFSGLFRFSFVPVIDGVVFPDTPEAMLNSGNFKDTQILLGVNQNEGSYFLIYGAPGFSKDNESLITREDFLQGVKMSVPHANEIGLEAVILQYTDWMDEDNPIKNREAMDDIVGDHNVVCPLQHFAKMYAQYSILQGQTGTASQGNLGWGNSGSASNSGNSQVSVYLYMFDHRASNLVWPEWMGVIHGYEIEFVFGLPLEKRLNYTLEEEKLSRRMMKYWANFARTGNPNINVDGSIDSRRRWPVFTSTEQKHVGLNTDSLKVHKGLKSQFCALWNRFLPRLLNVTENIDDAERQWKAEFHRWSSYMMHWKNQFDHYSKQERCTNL

For `O=C(N/N=C/c1ccccc1Cl)c1ccc(CN2CCC(CO)CC2)cc1`, the IC50 [1] was 9 µM, the Ratio IC50 [2] was 1.4 and the Activity [3] was “Non-Toxic”. For the same molecule, the IC50 [4] was 12.9 µM.
With `O=C(N/N=C/c1ccc(O)cc1)c1ccc(CN2CCC(CO)CC2)cc1` the IC50 [1] was 25.1 µM, the Ratio IC50 [2] was over 1.2 and the Activity [3] was “Non-Toxic”. The inhibition [5] was 45% and the IC50 [4] was over 30 µM.
In the case of `O=C(N/N=C/c1ccc(Cl)cc1)c1ccc(CN2CCC(CO)CC2)cc1`, the Ki [6] is reported as 3.55 µM, the IC50 [1] is reported as 5.6 µM and the Ratio IC50 [2] is reported as over 5.4. The inhibition at 10 µM [7] was 24.5%, the Activity [3] was “Non-Toxic” and the Activity [8] was “Active”. For the same molecule, the Activity [9] was “Non-Toxic” and the IC50 [4] was over 30 µM.
For `O=C(N/N=C/c1cccc(O)c1)c1ccc(CN2CCC(CO)CC2)cc1`, the IC50 [1] was 13.9 µM, the Ratio IC50 [2] was over 2.2 and the Activity [3] was “Non-Toxic”. The IC50 [4] was over 30 µM.
For `O=C(N/N=C/c1ccc(F)cc1)c1ccc(CN2CCC(CO)CC2)cc1`, the IC50 [1] was 26.4 µM, the Ratio IC50 [2] was over 1.1 and the Activity [3] was “Non-Toxic”. The IC50 [4] was over 30 µM.
For `O=C(N/N=C/c1ccccc1F)c1ccc(CN2CCC(CO)CC2)cc1`, the IC50 [1] was 12 µM, the Ratio IC50 [2] was over 2.5 and the Activity [3] was “Non-Toxic”. The IC50 [4] was over 30 µM.
For `COc1ccccc1/C=N/NC(=O)c1ccc(CN2CCC(CO)CC2)cc1`, the IC50 [1] was 13.5 µM, the Ratio IC50 [2] was 1 and the Activity [3] was “Non-Toxic”. For the same molecule, the IC50 [4] was 12.9 µM.
With `O=C(N/N=C/c1ccccc1O)c1ccc(CN2CCC(CO)CC2)cc1` the inhibition [10] was 30%, the IC50 [11] was 7.45 µM and the Activity [12] was “Active”. The Activity [13] was “Toxic”, the Activity [14] was “Active” and the Ki [6] was 3.81 µM. It also gave an IC50 [1] of 5.9 µM, a Ratio IC50 [2] of over 5.1 and an inhibition at 10 µM [7] of 67.1%. The Activity [3] was “Non-Toxic”, the Activity [15] was “Active” and the IC50 [4] was over 30 µM.
With `O=C(N/N=C/c1ccc(N2CCCCC2)cc1)c1ccc(CN2CCC(CO)CC2)cc1` the Activity [13] was “Toxic”, the Ki [6] was 6.24 µM and the IC50 [1] was 12 µM. For the same molecule, the Ratio IC50 [2] was over 2.5, the Activity [3] was “Non-Toxic” and the IC50 [4] was over 30 µM.
In the case of `COc1ccc(/C=N/NC(=O)c2ccc(CN3CCC(CO)CC3)cc2)cc1`, the IC50 [1] is reported as 15.3 µM, the Ratio IC50 [2] is reported as over 2 and the Activity [3] is reported as “Non-Toxic”. The IC50 [4] was over 30 µM.
For `O=C(N/N=C/c1cccc(F)c1)c1ccc(CN2CCC(CO)CC2)cc1`, the IC50 [1] was 8.2 µM, the Ratio IC50 [2] was over 3.6 and the Activity [3] was “Non-Toxic”. For the same molecule, the IC50 [4] was over 30 µM.
With `O=C(N/N=C/c1cccc(Cl)c1)c1ccc(CN2CCC(CO)CC2)cc1` the Ki [6] was 1.95 µM, the IC50 [1] was 3.3 µM and the Ratio IC50 [2] was 15. For the same molecule, the inhibition at 10 µM [7] was 46%, the Activity [3] was “Non-Toxic” and the Activity [8] was “Active”. For the same molecule, the Activity [9] was “Non-Toxic” and the IC50 [4] was 49.8 µM.
